Laboratory results reported in patent US5466671A, “Apidaecin-type peptide antibiotics with improved activities and/or different antibacterial spectrum” (priority 1994, dated 1995).
Residues, ends and D or L forms follow the SMILES beside them. No end group written: not given here.

Tests used:
[1] = test system: Francisella tularensis; format: cell-based; details: agar plate, 50 nanomoles/well, 3 mm wells
[2] = test system: Salmonella typhimurium; assay: Inhibition zone assay (agar plate); format: cell-based; details: agar plate, 50 nanomoles/well, 3 mm wells
[3] = test system: A. calcoaceticus; assay: Minimal inhibitory concentration (liquid culture); details: inoculum 16 × 10^6 CFU/ml; a-b = highest concentration with growth - lowest without growth
[4] = test system: Erwinia amylovora; assay: Inhibition zone assay (agar plate); format: cell-based; details: agar plate, 50 nanomoles/well, 3 mm wells
[5] = test system: Pseudomonas syringae; assay: Inhibition zone assay (agar plate); format: cell-based; details: agar plate, 50 nanomoles/well, 3 mm wells
[6] = test system: Escherichia coli (K514); format: cell-based; details: agar plate, 50 nanomoles/well, 3 mm wells
[7] = test system: E. coli 11775; assay: Minimal inhibitory concentration (liquid culture); details: a-b = highest concentration with growth - lowest without growth
[8] = test system: S. typhimurium; assay: Minimal inhibitory concentration (liquid culture); details: inoculum 8 × 10^6 CFU/ml; a-b = highest concentration with growth - lowest without growth
[9] = test system: Yersinia enterocolitica; assay: Inhibition zone assay (agar plate); format: cell-based; details: 50 nanomoles/well, 3 mm wells
[10] = test system: Escherichia coli (ATCC11775); assay: Inhibition zone assay (agar plate); format: cell-based; details: agar plate, 50 nanomoles/well, 3 mm wells
[11] = test system: M. morganii; assay: Minimal inhibitory concentration (liquid culture); details: inoculum 400 CFU/ml; a-b = highest concentration with growth - lowest without growth
[12] = test system: Haemophilus influenzae; assay: Inhibition zone assay (agar plate); format: cell-based; details: 50 nanomoles/well, 3 mm wells
[13] = test system: Agrobacterium tumefaciens; assay: Inhibition zone assay (agar plate); format: cell-based; details: agar plate, 50 nanomoles/well, 3 mm wells
[14] = test system: Klebsiella pneumoniae; assay: Inhibition zone assay (agar plate); format: cell-based; details: agar plate, 50 nanomoles/well, 3 mm wells
[15] = test system: Y. enterocolitica; assay: Minimal inhibitory concentration (liquid culture); details: inoculum 5000 CFU/ml; a-b = highest concentration with growth - lowest without growth
[16] = test system: E. coli 25922; assay: Minimal inhibitory concentration (liquid culture); details: inoculum 1100 CFU/ml; a-b = highest concentration with growth - lowest without growth
[17] = test system: E. coli Apid^R; assay: Minimal inhibitory concentration (liquid culture); format: cell-based; details: a-b = highest concentration with growth - lowest without growth
Text: For details see `Experimental Procedures`.

[18] = test system: Enterobacter cloacae; assay: Inhibition zone assay (agar plate); format: cell-based; details: agar plate, 50 nanomoles/well, 3 mm wells
[19] = test system: E. coli 23802; assay: Minimal inhibitory concentration (liquid culture); details: inoculum 5000 CFU/ml; a-b = highest concentration with growth - lowest without growth
[20] = test system: Rhizobium meliloti; assay: Inhibition zone assay (agar plate); format: cell-based; details: 50 nanomoles/well, 3 mm wells
[21] = test system: Acinetobacter calcoaceticus; assay: Inhibition zone assay (agar plate); format: cell-based; details: agar plate, 50 nanomoles/well, 3 mm wells
[22] = test system: Salmonella typhi; format: cell-based; details: agar plate, 50 nanomoles/well, 3 mm wells

NRPTYVPPPRPPHPRL [Ck P]
inhibition zone diameter (number of plus signs) [1]: ++ ((++) 7-9 mm)
inhibition zone diameter (number of plus signs) [2]: ++++ ((++++) 15-19 mm)
minimal inhibitory concentration (MIC) [3]: > 20 µg/mL
inhibition zone diameter (number of plus signs) [4]: +++ ((+++) 10-14 mm)
inhibition zone diameter (number of plus signs) [5]: ++++ ((++++) 15-19 mm)
inhibition zone diameter (number of plus signs) [6]: ++ ((++) 7-9 mm)
minimal inhibitory concentration (MIC) ([7]; inoculum 16 × 10^6 CFU/ml): 1 to 5 µg/mL
minimal inhibitory concentration (MIC) ([7]; inoculum 1200 CFU/ml): 0.1 to 0.5 µg/mL
minimal inhibitory concentration (MIC) [8]: 1 to 5 µg/mL
inhibition zone diameter (number of plus signs) [9]: +++ ((+++) 10-14 mm)
inhibition zone diameter (number of plus signs) [10]: +++ ((+++) 10-14 mm)
minimal inhibitory concentration (MIC) [11]: > 40 µg/mL
inhibition zone diameter (number of plus signs) [12]: ++ ((++) 7-9 mm)
inhibition zone diameter (number of plus signs) [13]: ++++ ((++++) 15-19 mm)
inhibition zone diameter (number of plus signs) [14]: ++ ((++) 7-9 mm)
minimal inhibitory concentration (MIC) [15]: 1 to 5 µg/mL
minimal inhibitory concentration (MIC) [16]: 0.5 to 1 µg/mL
minimal inhibitory concentration (MIC) ([17]; inoculum 12 × 10^6 CFU/ml): > 40 µg/mL
minimal inhibitory concentration (MIC) ([17]; inoculum 1000 CFU/ml): > 40 µg/mL
inhibition zone diameter (number of plus signs) [18]: +++ ((+++) 10-14 mm)
minimal inhibitory concentration (MIC) [19]: 20 to 40 µg/mL
inhibition zone diameter (number of plus signs) [20]: +++++ ((+++++) 20 or more min)

CC(C)C[C@H](NC(=O)[C@H](CCCNC(=N)N)NC(=O)[C@@H]1CCCN1C(=O)[C@H](Cc1c[nH]cn1)NC(=O)[C@@H]1CCCN1C(=O)[C@@H]1CCCN1C(=O)[C@H](CCCNC(=N)N)NC(=O)[C@@H]1CCCN1C(=O)[C@@H]1CCCN1C(=O)[C@@H](NC(=O)[C@H](CCC(N)=O)NC(=O)[C@H](CCC(N)=O)NC(=O)[C@@H]1CCCN1C(=O)[C@H](CCCNC(=N)N)NC(=O)[C@@H]1CCCN1C(=O)[C@H](CCCCN)NC(=O)[C@@H](N)CC(N)=O)C(C)C)C(=O)O [Yj -S, Asn--Lys--Pro--Arg--Pro--Gln--Gln--Val--Pro--Pro--Arg--Pro--Pro--His--Pro--Arg--Leu] (H-NKPRPQQVPPRPPHPRL-OH)
inhibition zone diameter (number of plus signs) [1]: + ((+) 5-6 mm)
inhibition zone diameter (number of plus signs) [2]: +++ ((+++) 10-14 mm)
minimal inhibitory concentration (MIC) [3]: 2 to 10 µg/mL
inhibition zone diameter (number of plus signs) [4]: ++++ ((++++) 15-19 mm)
inhibition zone diameter (number of plus signs) [5]: ++++ ((++++) 15-19 mm)
minimal inhibitory concentration (MIC) ([7]; inoculum 16 × 10^6 CFU/ml): 0.1 to 0.5 µg/mL
minimal inhibitory concentration (MIC) ([7]; inoculum 1200 CFU/ml): 0.1 to 0.5 µg/mL
minimal inhibitory concentration (MIC) [8]: 0.1 to 0.5 µg/mL
inhibition zone diameter (number of plus signs) [9]: ++ ((++) 7-9 mm)
inhibition zone diameter (number of plus signs) [10]: +++ ((+++) 10-14 mm)
inhibition zone diameter (number of plus signs) [21]: ++ ((++) 7-9 mm)
minimal inhibitory concentration (MIC) [11]: 1 to 5 µg/mL
inhibition zone diameter (number of plus signs) [12]: ++ ((++) 7-9 mm)
inhibition zone diameter (number of plus signs) [13]: ++ ((++) 7-9 mm)
inhibition zone diameter (number of plus signs) [14]: ++ ((++) 7-9 mm)
minimal inhibitory concentration (MIC) [15]: 1 to 5 µg/mL
minimal inhibitory concentration (MIC) [16]: 0.1 to 0.5 µg/mL
minimal inhibitory concentration (MIC) ([17]; inoculum 12 × 10^6 CFU/ml): 5 to 10 µg/mL
minimal inhibitory concentration (MIC) ([17]; inoculum 1000 CFU/ml): 5 to 10 µg/mL
inhibition zone diameter (number of plus signs) [18]: ++ ((++) 7-9 mm)
minimal inhibitory concentration (MIC) [19]: 1 to 5 µg/mL
inhibition zone diameter (number of plus signs) [20]: ++++ ((++++) 15-19 mm)

CC(C)C[C@H](NC(=O)[C@H](CCCNC(=N)N)NC(=O)[C@@H]1CCCN1C(=O)[C@H](Cc1c[nH]cn1)NC(=O)[C@@H]1CCCN1C(=O)[C@@H]1CCCN1C(=O)[C@H](CCCNC(=N)N)NC(=O)[C@@H]1CCCN1C(=O)[C@@H]1CCCN1C(=O)[C@@H](NC(=O)[C@H](CCC(N)=O)NC(=O)[C@H](CCC(N)=O)NC(=O)[C@@H]1CCCN1C(=O)[C@H](CCCNC(=N)N)NC(=O)[C@@H]1CCCN1C(=O)[C@H](CCCCN)NC(=O)[C@H](CC(N)=O)NC(=O)[C@@H](N)CO)C(C)C)C(=O)O [Yj +S, Ser--Asn--Lys--Pro--Arg--Pro--Gln--Gln--Val--Pro--Pro--Arg--Pro--Pro--His--Pro--Arg--Leu] (H-SNKPRPQQVPPRPPHPRL-OH)
inhibition zone diameter (number of plus signs) [1]: ++ ((++) 7-9 mm)
inhibition zone diameter (number of plus signs) [2]: +++ ((+++) 10-14 mm)
minimal inhibitory concentration (MIC) [3]: 2 to 10 µg/mL
inhibition zone diameter (number of plus signs) [22]: ++ ((++) 7-9 mm)
inhibition zone diameter (number of plus signs) [4]: +++ ((+++) 10-14 mm)
inhibition zone diameter (number of plus signs) [5]: ++++ ((++++) 15-19 mm)
inhibition zone diameter (number of plus signs) [6]: ++ ((++) 7-9 mm)
minimal inhibitory concentration (MIC) ([7]; inoculum 16 × 10^6 CFU/ml): 0.1 to 0.5 µg/mL
minimal inhibitory concentration (MIC) ([7]; inoculum 1200 CFU/ml): 0.1 to 0.5 µg/mL
minimal inhibitory concentration (MIC) [8]: 0.1 to 0.5 µg/mL
inhibition zone diameter (number of plus signs) [10]: +++ ((+++) 10-14 mm)
inhibition zone diameter (number of plus signs) [21]: + ((+) 5-6 mm)
minimal inhibitory concentration (MIC) [11]: 0.5 to 1 µg/mL
inhibition zone diameter (number of plus signs) [12]: +++ ((+++) 10-14 mm)
inhibition zone diameter (number of plus signs) [14]: ++ ((++) 7-9 mm)
minimal inhibitory concentration (MIC) [15]: 1 to 5 µg/mL
minimal inhibitory concentration (MIC) [16]: 0.1 to 0.5 µg/mL
minimal inhibitory concentration (MIC) ([17]; inoculum 12 × 10^6 CFU/ml): 10 to 20 µg/mL
minimal inhibitory concentration (MIC) ([17]; inoculum 1000 CFU/ml): 1 to 5 µg/mL
inhibition zone diameter (number of plus signs) [18]: ++ ((++) 7-9 mm)
minimal inhibitory concentration (MIC) [19]: 0.5 to 1 µg/mL

CC(C)C[C@H](NC(=O)[C@H](CCCNC(=N)N)NC(=O)[C@@H]1CCCN1C(=O)[C@H](Cc1c[nH]cn1)NC(=O)[C@@H]1CCCN1C(=O)[C@@H]1CCCN1C(=O)[C@H](CCCNC(=N)N)NC(=O)[C@@H]1CCCN1C(=O)[C@H](C)NC(=O)[C@@H]1CCCN1C(=O)[C@@H](NC(=O)[C@H](Cc1ccc(O)cc1)NC(=O)[C@@H](NC(=O)[C@@H]1CCCN1C(=O)[C@H](CCCNC(=N)N)NC(=O)[C@@H](N)CC(N)=O)[C@@H](C)O)C(C)C)C(=O)O [Ck A, Asn--Arg--Pro--Thr--Tyr--Val--Pro--Ala--Pro--Arg--Pro--Pro--His--Pro--Arg--Leu] (H-NRPTYVPAPRPPHPRL-OH)
inhibition zone diameter (number of plus signs) [1]: + ((+) 5-6 mm)
inhibition zone diameter (number of plus signs) [2]: +++ ((+++) 10-14 mm)
minimal inhibitory concentration (MIC) [3]: > 20 µg/mL
inhibition zone diameter (number of plus signs) [4]: +++ ((+++) 10-14 mm)
inhibition zone diameter (number of plus signs) [5]: +++ ((+++) 10-14 mm)
inhibition zone diameter (number of plus signs) [6]: ++ ((++) 7-9 mm)
minimal inhibitory concentration (MIC) ([7]; inoculum 16 × 10^6 CFU/ml): 1 to 5 µg/mL
minimal inhibitory concentration (MIC) ([7]; inoculum 1200 CFU/ml): 0.1 to 0.5 µg/mL
minimal inhibitory concentration (MIC) [8]: 1 to 5 µg/mL
inhibition zone diameter (number of plus signs) [9]: +++ ((+++) 10-14 mm)
inhibition zone diameter (number of plus signs) [10]: +++ ((+++) 10-14 mm)
minimal inhibitory concentration (MIC) [11]: 20 to 40 µg/mL
inhibition zone diameter (number of plus signs) [12]: ++ ((++) 7-9 mm)
inhibition zone diameter (number of plus signs) [13]: ++++ ((++++) 15-19 mm)
inhibition zone diameter (number of plus signs) [14]: ++ ((++) 7-9 mm)
minimal inhibitory concentration (MIC) [15]: 1 to 5 µg/mL
minimal inhibitory concentration (MIC) [16]: 1 to 5 µg/mL
minimal inhibitory concentration (MIC) ([17]; inoculum 12 × 10^6 CFU/ml): > 40 µg/mL
minimal inhibitory concentration (MIC) ([17]; inoculum 1000 CFU/ml): > 40 µg/mL
inhibition zone diameter (number of plus signs) [18]: ++ ((++) 7-9 mm)
minimal inhibitory concentration (MIC) [19]: > 40 µg/mL
inhibition zone diameter (number of plus signs) [20]: ++++ ((++++) 15-19 mm)
